From patent US20210403485A1, “PYRAZOLOPYRIMIDINE DERIVATIVE AS SELECTIVE TRK INHIBITOR” (SHANDONG LUYE PHARMACEUTICAL CO., LTD., priority 2018, published 2021)

Key:
[1] = molecular target: T1, BaF3 ETV6-NTRK3-G623R (Homo sapiens, UniProt Q16288, G623R, cells depend on it); assay: Inhibitory activity against cell proliferation (CellTiter-Glo, 72 hours); format: cell-based; conditions: read-out: Half maximal inhibitory concentration IC50 of cells, BaF3 ETV6-NTRK3-G623R
T1 construct: fused on or other part: N-terminal part of ETV6 (TEL) as fusion partner (part of the key); P41212 (Transcription factor ETV6)
Protocol: (§1) Adenosine Triphosphate (ATP) is an energy carrier commonly used in various life activities in nature, and is the minimum unit for energy storage and transfer. The CellTiter-Glo™ cell viability assay kit uses luciferase as an assay agent, which requires the involvement of ATP in luminescence. The CellTiter-Glo™ reagent is added into cell culture medium to measure the luminescence value. The luminescence signal is directly proportional to the amount of ATP in the system, and the ATP is positively correlated with the number of viable cells. Therefore, the proliferation of cells can be detected by detecting the ATP content using the CellTiter-Glo kit. In this test, the cell lines used are Ba/F3 LMNA-NTRK1-WT, Ba/F3 LMNA-NTRK1-F589L, BaF3 LMNA-NTRK1-G595R, BaF3 LMNA-NTRK1-G667A, BaF3 ETV6-NTRK3-WT, BaF3 ETV6-NTRK3-G623R, and Ba/F3 SLC34A2-ROS1-WT stable cell strains, 5000 cells/well.
(§2) a) Cells in the logarithmic growth phase were collected and counted using a […]. The cell viability was detected by the trypan blue exclusion method, and the cell viability was kept over 90%.
(§3) b) The cell concentration was adjusted; 90 μL of the cell suspension was added to a 96-well plate.
c) Cells in the 96-well plate were incubated overnight at 37° C. with 5% CO2 and 95% humidity.
(§4) a) A 10-fold compound solution was prepared, with the highest concentration being 10 μM (a total of 9 concentrations, 3-fold dilution). 10 μL of compound solution was added to each well of a 96-well plate inoculated with cells, and three duplicate wells were set for each compound concentration.
b) The cells in the 96-well plate added with compound were incubated for 72 hours at 37° C. with 5% CO2 and 95% humidity, followed by the CTG (CellTiter-Glo) analysis.
(§5) a) The CTG reagent was thawed and the cell plate was equilibrated to room temperature for 30 minutes.
(§6) b) An equal volume of CTG solution was added to each well.
(§7) c) The plate was shaken on an orbital shaker for 5 minutes to lyse the cells.
(§8) d) The cell plate was placed at room temperature for 20 minutes to stabilize the luminescence signal.
(§9) e) The luminescence value was read.
(§10) The data were analyzed using GraphPad Prism 5.0 software, fitted with nonlinear S-curve regression to give dose-response curves, and IC50 values were calculated therefrom.

[2] = molecular target: T2, TrkC (Homo sapiens, UniProt Q16288); assay: Kinase inhibitory activity (33P-ATP, filtration-binding method, Reaction Biology Corp.); format: biochemical; conditions: read-out: Half maximal inhibitory concentration IC50 for kinases, TrkC
T2 construct: purchased Reaction Biology Corp
Protocol: (§11) The mixture was incubated at room temperature for 20 minutes, added with ^33P-ATP at a certain concentration to start the reaction, and then incubated at room temperature for 120 minutes. Finally, the radioactivity of the reactant was detected by the filtration-binding method. The final kinase activity was expressed as the ratio of the remaining kinase activity in the test sample to the kinase activity of the DMSO control. The dose-response curves were fitted and IC50 values were calculated by GraphPad software.

[3] = molecular target: T3, Ros1 (Homo sapiens, UniProt P08922); assay: as above; format: biochemical; conditions: read-out: Half maximal inhibitory concentration IC50 for kinases, Ros1
T3 construct: purchased Reaction Biology Corp
Protocol: as §11

[4] = molecular target: T4, TrkA-G667C (Homo sapiens, UniProt P04629, G667C); assay: as above; format: biochemical; conditions: read-out: Half maximal inhibitory concentration IC50 for kinases, TrkA-G667C
T4 construct: purchased Reaction Biology Corp
Protocol: as §11

[5] = molecular target: T5, ALK (Homo sapiens, UniProt Q9UM73); assay: as above; format: biochemical; conditions: read-out: Half maximal inhibitory concentration IC50 for kinases, ALK
T5 construct: purchased Reaction Biology Corp
Protocol: as §11

[6] = molecular target: T6, TrkA (Homo sapiens, UniProt P04629); assay: as above; format: biochemical; conditions: read-out: Half maximal inhibitory concentration IC50 for kinases, TrkA
T6 construct: purchased Reaction Biology Corp
Protocol: as §11

[7] = molecular target: T7, TrkA-G595R (Homo sapiens, UniProt P04629, G595R); assay: as above; format: biochemical; conditions: read-out: Half maximal inhibitory concentration IC50 for kinases, TrkA-G595R
T7 construct: purchased Reaction Biology Corp
Protocol: as §11

[8] = molecular target: T8, BaF3 LMNA-NTRK1-G595R (Homo sapiens, UniProt P04629, G595R, cells depend on it); assay: Inhibitory activity against cell proliferation (CellTiter-Glo, 72 hours); format: cell-based; conditions: read-out: Half maximal inhibitory concentration IC50 of cells, BaF3 LMNA-NTRK1-G595R
T8 construct: fused on or other part: N-terminal part of LMNA as fusion partner (part of the key); P02545 (Prelamin-A/C)
Protocol: as §1, with “kit.” for “kit. In this test, the cell lines used are Ba/F3 LMNA-NTRK1-WT, Ba/F3 LMNA-NTRK1-F589L, BaF3 LMNA-NTRK1-G595R, BaF3 LMNA-NTRK1-G667A, BaF3 ETV6-NTRK3-WT, BaF3 ETV6-NTRK3-G623R, and Ba/F3 SLC34A2-ROS1-WT stable cell strains, 5000 cells/well.”
as §2, §3, §4, §5, §6, §7, §8, §9, §10

[9] = molecular target: T9, BaF3 ETV6-NTRK3-WT (Homo sapiens, UniProt Q16288); assay: as above; format: cell-based; conditions: read-out: Half maximal inhibitory concentration IC50 of cells, BaF3 ETV6-NTRK3-WT
T9 construct: fused on or other part: N-terminal part of ETV6 (TEL) as fusion partner (part of the key); P41212 (Transcription factor ETV6)
Protocol: as §1, with “kit.” for “kit. In this test, the cell lines used are Ba/F3 LMNA-NTRK1-WT, Ba/F3 LMNA-NTRK1-F589L, BaF3 LMNA-NTRK1-G595R, BaF3 LMNA-NTRK1-G667A, BaF3 ETV6-NTRK3-WT, BaF3 ETV6-NTRK3-G623R, and Ba/F3 SLC34A2-ROS1-WT stable cell strains, 5000 cells/well.”
as §2, §3, §4, §5, §6, §7, §8, §9, §10

[10] = molecular target: T10, Ba/F3 SLC34A2-ROS1-WT (Homo sapiens, UniProt P08922); assay: as above; format: cell-based; conditions: read-out: Half maximal inhibitory concentration IC50 of cells, Ba/F3 SLC34A2-ROS1-WT
T10 construct: fused on or other part: N-terminal part of SLC34A2 as fusion partner (part of the key); O95436 (Sodium-dependent phosphate transport protein 2B)
Protocol: as §1, with “kit.” for “kit. In this test, the cell lines used are Ba/F3 LMNA-NTRK1-WT, Ba/F3 LMNA-NTRK1-F589L, BaF3 LMNA-NTRK1-G595R, BaF3 LMNA-NTRK1-G667A, BaF3 ETV6-NTRK3-WT, BaF3 ETV6-NTRK3-G623R, and Ba/F3 SLC34A2-ROS1-WT stable cell strains, 5000 cells/well.”
as §2, §3, §4, §5, §6, §7, §8, §9, §10

[11] = molecular target: T11, Ba/F3 LMNA-NTRK1-F589L (Homo sapiens, UniProt P04629, F589L, cells depend on it); assay: as above; format: cell-based; conditions: read-out: Half maximal inhibitory concentration IC50 of cells, Ba/F3 LMNA-NTRK1-F589L
T11 construct: fused on or other part: N-terminal part of LMNA as fusion partner (part of the key); P02545 (Prelamin-A/C)
Protocol: as §1, with “kit.” for “kit. In this test, the cell lines used are Ba/F3 LMNA-NTRK1-WT, Ba/F3 LMNA-NTRK1-F589L, BaF3 LMNA-NTRK1-G595R, BaF3 LMNA-NTRK1-G667A, BaF3 ETV6-NTRK3-WT, BaF3 ETV6-NTRK3-G623R, and Ba/F3 SLC34A2-ROS1-WT stable cell strains, 5000 cells/well.”
as §2, §3, §4, §5, §6, §7, §8, §9, §10

[12] = molecular target: T12, BaF3 LMNA-NTRK1-G667A (Homo sapiens, UniProt P04629, G667A, cells depend on it); assay: as above; format: cell-based; conditions: read-out: Half maximal inhibitory concentration IC50 of cells, BaF3 LMNA-NTRK1-G667A
T12 construct: fused on or other part: N-terminal part of LMNA as fusion partner (part of the key); P02545 (Prelamin-A/C)
Protocol: as §1, with “kit.” for “kit. In this test, the cell lines used are Ba/F3 LMNA-NTRK1-WT, Ba/F3 LMNA-NTRK1-F589L, BaF3 LMNA-NTRK1-G595R, BaF3 LMNA-NTRK1-G667A, BaF3 ETV6-NTRK3-WT, BaF3 ETV6-NTRK3-G623R, and Ba/F3 SLC34A2-ROS1-WT stable cell strains, 5000 cells/well.”
as §2, §3, §4, §5, §6, §7, §8, §9, §10

[13] = molecular target: T13, Ba/F3 LMNA-NTRK1-WT (Homo sapiens, UniProt P04629); assay: as above; format: cell-based; conditions: read-out: Half maximal inhibitory concentration IC50 of cells, Ba/F3 LMNA-NTRK1-WT
T13 construct: fused on or other part: N-terminal part of LMNA as fusion partner (part of the key); P02545 (Prelamin-A/C)
Protocol: as §1, with “kit.” for “kit. In this test, the cell lines used are Ba/F3 LMNA-NTRK1-WT, Ba/F3 LMNA-NTRK1-F589L, BaF3 LMNA-NTRK1-G595R, BaF3 LMNA-NTRK1-G667A, BaF3 ETV6-NTRK3-WT, BaF3 ETV6-NTRK3-G623R, and Ba/F3 SLC34A2-ROS1-WT stable cell strains, 5000 cells/well.”
as §2, §3, §4, §5, §6, §7, §8, §9, §10

[14] = Pharmacokinetic test of compounds in rats (plasma, LC/MS/MS); format: in vivo, male SD rats; conditions: for Cmax: read-out: Peak concentration Cmax
Protocol: Experimental purpose: male SD rats aged 7-9 weeks were selected as test animals, and the drug concentrations of the compounds in plasma at different time points after single intravenous injection (IV) and intragastric administration (PO) of the compounds were measured by an LC/MS/MS method, so that the pharmacokinetic behavior of the compounds disclosed herein in rats was studied, and the pharmacokinetic characteristic of the compounds was evaluated.
Drug preparation: the compounds were all prepared into clear solution by taking 5% DMSO+10% solutol+85% water as vehicle, and were used for administration in IV and PO groups. The dose of each compound administered was: IV, 3 mg/kg; PO, 10 mg/kg.

T4 sequence (P04629 33-796 G667C): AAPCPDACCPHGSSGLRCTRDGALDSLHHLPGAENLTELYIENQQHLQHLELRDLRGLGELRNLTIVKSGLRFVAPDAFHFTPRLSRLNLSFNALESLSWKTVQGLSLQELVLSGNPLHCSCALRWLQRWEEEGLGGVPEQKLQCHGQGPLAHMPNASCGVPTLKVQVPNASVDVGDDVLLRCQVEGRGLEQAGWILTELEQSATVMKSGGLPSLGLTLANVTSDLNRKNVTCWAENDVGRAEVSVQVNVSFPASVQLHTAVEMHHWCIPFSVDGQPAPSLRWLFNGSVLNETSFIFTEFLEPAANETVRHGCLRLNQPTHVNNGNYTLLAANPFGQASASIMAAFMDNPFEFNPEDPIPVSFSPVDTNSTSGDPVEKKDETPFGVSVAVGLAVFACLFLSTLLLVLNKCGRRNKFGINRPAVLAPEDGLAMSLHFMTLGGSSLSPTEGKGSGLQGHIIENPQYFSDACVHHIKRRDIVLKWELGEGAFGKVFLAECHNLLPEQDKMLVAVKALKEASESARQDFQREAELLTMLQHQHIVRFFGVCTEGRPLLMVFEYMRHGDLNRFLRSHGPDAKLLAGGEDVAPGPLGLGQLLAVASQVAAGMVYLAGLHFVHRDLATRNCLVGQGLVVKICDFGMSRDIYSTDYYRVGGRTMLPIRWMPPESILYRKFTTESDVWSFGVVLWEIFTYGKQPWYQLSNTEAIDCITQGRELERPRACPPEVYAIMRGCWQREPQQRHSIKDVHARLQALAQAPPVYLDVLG
T3 sequence (P08922 28-2347): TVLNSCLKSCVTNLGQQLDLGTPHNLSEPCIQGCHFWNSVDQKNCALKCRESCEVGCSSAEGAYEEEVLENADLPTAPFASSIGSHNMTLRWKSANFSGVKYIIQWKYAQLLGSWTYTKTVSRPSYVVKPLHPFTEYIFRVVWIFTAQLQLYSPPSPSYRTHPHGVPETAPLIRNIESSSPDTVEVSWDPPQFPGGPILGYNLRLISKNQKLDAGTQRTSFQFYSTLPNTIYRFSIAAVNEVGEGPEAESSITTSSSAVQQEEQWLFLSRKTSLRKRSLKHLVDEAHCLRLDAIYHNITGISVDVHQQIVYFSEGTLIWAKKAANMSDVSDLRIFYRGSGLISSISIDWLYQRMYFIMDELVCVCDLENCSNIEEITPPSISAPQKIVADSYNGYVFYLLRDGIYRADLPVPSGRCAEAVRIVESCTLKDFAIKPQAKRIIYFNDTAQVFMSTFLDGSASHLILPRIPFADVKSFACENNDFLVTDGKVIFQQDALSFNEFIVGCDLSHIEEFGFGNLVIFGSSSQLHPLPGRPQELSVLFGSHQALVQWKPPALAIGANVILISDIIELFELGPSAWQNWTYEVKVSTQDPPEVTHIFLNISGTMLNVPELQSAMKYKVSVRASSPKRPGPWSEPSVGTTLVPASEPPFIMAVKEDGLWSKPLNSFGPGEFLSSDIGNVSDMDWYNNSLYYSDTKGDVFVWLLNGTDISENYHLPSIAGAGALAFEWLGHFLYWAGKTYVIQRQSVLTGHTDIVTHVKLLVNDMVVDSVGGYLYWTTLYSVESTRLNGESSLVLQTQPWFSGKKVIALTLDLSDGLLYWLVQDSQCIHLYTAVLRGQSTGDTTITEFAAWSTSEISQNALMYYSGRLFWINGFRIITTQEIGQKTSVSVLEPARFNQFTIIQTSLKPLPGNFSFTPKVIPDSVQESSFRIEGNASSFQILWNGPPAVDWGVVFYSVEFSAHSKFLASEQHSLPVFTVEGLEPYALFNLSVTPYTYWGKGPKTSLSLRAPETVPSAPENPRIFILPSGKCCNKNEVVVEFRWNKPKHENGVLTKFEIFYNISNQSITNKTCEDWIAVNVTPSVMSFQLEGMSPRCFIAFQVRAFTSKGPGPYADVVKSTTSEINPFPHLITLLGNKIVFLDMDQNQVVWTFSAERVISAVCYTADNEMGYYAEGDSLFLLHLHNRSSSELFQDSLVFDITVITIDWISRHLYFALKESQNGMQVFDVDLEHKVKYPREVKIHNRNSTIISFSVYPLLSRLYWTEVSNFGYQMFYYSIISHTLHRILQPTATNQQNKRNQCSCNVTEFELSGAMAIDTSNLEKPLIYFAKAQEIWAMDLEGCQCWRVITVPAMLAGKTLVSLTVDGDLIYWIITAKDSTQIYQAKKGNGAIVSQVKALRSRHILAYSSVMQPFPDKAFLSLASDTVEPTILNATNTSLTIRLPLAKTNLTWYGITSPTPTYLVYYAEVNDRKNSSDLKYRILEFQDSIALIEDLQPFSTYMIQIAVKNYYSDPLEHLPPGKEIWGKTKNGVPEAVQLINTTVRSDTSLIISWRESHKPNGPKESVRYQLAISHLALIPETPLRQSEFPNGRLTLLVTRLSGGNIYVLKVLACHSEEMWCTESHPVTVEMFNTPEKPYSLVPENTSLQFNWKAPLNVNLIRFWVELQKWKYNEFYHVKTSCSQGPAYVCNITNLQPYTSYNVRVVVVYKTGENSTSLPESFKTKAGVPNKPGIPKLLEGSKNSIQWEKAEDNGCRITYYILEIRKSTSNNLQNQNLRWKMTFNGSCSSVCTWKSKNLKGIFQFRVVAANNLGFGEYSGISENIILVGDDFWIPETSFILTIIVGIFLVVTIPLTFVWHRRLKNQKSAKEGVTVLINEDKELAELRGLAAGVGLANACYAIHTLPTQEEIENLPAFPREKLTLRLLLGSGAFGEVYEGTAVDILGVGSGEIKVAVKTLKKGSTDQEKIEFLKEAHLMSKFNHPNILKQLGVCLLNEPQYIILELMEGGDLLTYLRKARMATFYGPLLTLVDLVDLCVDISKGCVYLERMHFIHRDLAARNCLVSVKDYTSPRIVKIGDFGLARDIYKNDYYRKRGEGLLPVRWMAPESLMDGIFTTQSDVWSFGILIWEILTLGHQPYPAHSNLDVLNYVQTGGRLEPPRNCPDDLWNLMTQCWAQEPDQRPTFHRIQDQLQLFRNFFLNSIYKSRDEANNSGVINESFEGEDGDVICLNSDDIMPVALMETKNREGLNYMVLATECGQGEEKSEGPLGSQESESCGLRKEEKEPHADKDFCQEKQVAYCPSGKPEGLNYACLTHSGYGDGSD
T12 sequence (P04629 whole entry G667A, the tested form may be a part): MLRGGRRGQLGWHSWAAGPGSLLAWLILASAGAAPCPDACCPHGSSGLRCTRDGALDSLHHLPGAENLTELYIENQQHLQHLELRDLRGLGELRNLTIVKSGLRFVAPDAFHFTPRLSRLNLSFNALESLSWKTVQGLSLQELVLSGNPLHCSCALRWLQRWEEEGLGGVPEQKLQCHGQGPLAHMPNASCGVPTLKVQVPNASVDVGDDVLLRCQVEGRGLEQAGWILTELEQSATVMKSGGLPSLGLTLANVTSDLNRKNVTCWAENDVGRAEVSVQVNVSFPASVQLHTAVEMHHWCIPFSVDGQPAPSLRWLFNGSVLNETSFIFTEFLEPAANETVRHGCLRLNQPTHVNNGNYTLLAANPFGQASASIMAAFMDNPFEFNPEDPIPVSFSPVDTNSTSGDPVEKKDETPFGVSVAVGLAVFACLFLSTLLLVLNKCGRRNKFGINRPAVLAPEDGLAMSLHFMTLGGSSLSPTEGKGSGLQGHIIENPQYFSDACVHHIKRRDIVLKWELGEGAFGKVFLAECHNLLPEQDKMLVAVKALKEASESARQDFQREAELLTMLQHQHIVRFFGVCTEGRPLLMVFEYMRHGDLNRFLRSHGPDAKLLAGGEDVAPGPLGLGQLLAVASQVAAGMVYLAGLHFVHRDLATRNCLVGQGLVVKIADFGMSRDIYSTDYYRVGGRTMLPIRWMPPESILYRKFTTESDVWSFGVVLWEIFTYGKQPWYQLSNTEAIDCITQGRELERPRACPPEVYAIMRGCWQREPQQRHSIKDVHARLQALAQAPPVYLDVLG
T8 sequence (P04629 whole entry G595R, the tested form may be a part): as the sequence (P04629 whole entry G667A, the tested form may be a part) above, with G595R, A667G counted along it

| SMILES | GI50 [1] [nM] | IC50 [2] [nM] | IC50 [3] [nM] | IC50 [4] [nM] | IC50 [5] [nM] | IC50 [6] [nM] | IC50 [7] [nM] | GI50 [8] [nM] | GI50 [9] [nM] | GI50 [10] [nM] | GI50 [11] [nM] | GI50 [12] [nM] | GI50 [13] [nM] | Apparent clearance Cl ([14]; IV, 3 mg/kg) [mL/min/kg] | Apparent volume of distribution Vd ([14]; IV, 3 mg/kg) [L/kg] | Area under the curve AUC0-last ([14]; IV, 3 mg/kg) [µM·h] | Half-life T1/2 ([14]; IV, 3 mg/kg) [min] | Area under the curve AUC0-last ([14]; PO, 10 mg/kg) [µM·h] | Bioavailability F % ([14]; PO, 10 mg/kg) [%] | Time to peak Tmax ([14]; PO, 10 mg/kg) [min] | further results |
| --- | --- | --- | --- | --- | --- | --- | --- | --- | --- | --- | --- | --- | --- | --- | --- | --- | --- | --- | --- | --- | --- |
| C[C@@H]1COc2ncc(F)cc2[C@H]2COC[C@@H](C)N2c2ccn3ncc(c3n2)C(=O)N1 [WX006] | 14.2 | 0.1 | 4.8 | 0.1 | > 1000 | 0.7 | 0.3 | 8.4 | 3.2 | 900 | 189 | 2 | 1.5 | 32.9 | 1.3 | 3.818 | 36 | 6.637 | 53 | 30 | Cmax ([14]; PO, 10 mg/kg): 3750 nM |
| C[C@@H]1COC[C@@H]2c3cc(F)cnc3O[C@@H](C)CNC(=O)c3cnn4ccc(nc34)N12 [WX008] | 8.6 | 0.1 | 12.8 | 0.1 | > 1000 | 0.7 | 0.2 | 5 | 1.8 | > 1000 | 204 | 2 | 1.6 | 44.0 | 1.4 | 2.748 | 30 | 2.282 | 25 | 30 | Cmax ([14]; PO, 10 mg/kg): 1130 nM |
| O=C1NC2(CC2)COc2ncc(F)cc2[C@H]2CCOCCN2c2ccn3ncc1c3n2 [WX009A] | 12.9 | 0.1 | 0.1 | 2.9 | 51.3 | 1.8 | 0.9 | 7.4 | 2.2 | 50 | 15.8 | 7.3 | 1 | 19.0 | 1.3 | 6.19 | 54 | 9.696 | 49 | 78 | Cmax ([14]; PO, 10 mg/kg): 2630 nM |
